Active and inactive are the calls of the source. The rule behind the calls is not given here.
Experiments:
[1] = tested on: Quadruplex DNA; test: Binding affinity to human c-Myc G-quadruplex DNA at 2 uM incubated for 2 mins by UV- vis spectrophotometric analysis; format: nucleic-acid assay
[2] = tested on: Quadruplex DNA; test: Binding affinity to human 22AG G-quadruplex DNA by spectrofluorophotometric method; format: nucleic-acid assay
[3] = molecular target: Quadruplex DNA; test: Displacement of TO from human G3T3 G-quadruplex DNA at pH 7.4 by spectrofluorophotometric FID assay; format: nucleic-acid assay
[4] = tested on: Quadruplex DNA; test: Binding affinity to human CM22 G-quadruplex DNA at 2 uM incubated for 2 mins by UV- vis spectrophotometric analysis; format: nucleic-acid assay
[5] = tested on: Quadruplex DNA; test: Binding affinity to human Pu27 G-quadruplex DNA at 2 uM incubated for 2 mins by UV- vis spectrophotometric analysis; format: nucleic-acid assay
[6] = tested on: Quadruplex DNA; test: Binding affinity to human Hum24 G-quadruplex DNA at 2 uM incubated for 2 mins by UV- vis spectrophotometric analysis; format: nucleic-acid assay
[7] = tested on: Quadruplex DNA; test: Binding affinity of human G3T3 G-quadruplex DNA at 2 uM incubated for 2 mins by UV- vis spectrophotometric analysis; format: nucleic-acid assay
[8] = tested on: Quadruplex DNA; test: Binding affinity to human Htg-21 G-quadruplex DNA at 2 uM incubated for 2 mins by UV- vis spectrophotometric analysis; format: nucleic-acid assay
[9] = tested on: Quadruplex DNA; test: Binding affinity to human 22AG G-quadruplex DNA at 2 uM incubated for 2 mins by UV- vis spectrophotometric analysis; format: nucleic-acid assay
[10] = tested on: Quadruplex DNA; test: Binding affinity to human EAD G-quadruplex DNA at 2 uM incubated for 2 mins by UV- vis spectrophotometric analysis; format: nucleic-acid assay
[11] = tested on: Quadruplex DNA; test: Binding affinity to human G-Quadruplex DNA assessed as aggregation at 10 uM by TEM analysis; format: nucleic-acid assay
[12] = tested on: Quadruplex DNA; test: Binding affinity to human CM22 G-quadruplex DNA by spectrofluorophotometric method; format: nucleic-acid assay
[13] = molecular target: Quadruplex DNA; test: Displacement of TO from human 22AG G-quadruplex DNA at pH 7.4 by spectrofluorophotometric based FID assay; format: nucleic-acid assay
[14] = molecular target: Quadruplex DNA; test: Displacement of TO from human CM22 G-quadruplex DNA at pH 7.4 by spectrofluorophotometric FID assay; format: nucleic-acid assay
[15] = molecular target: Quadruplex DNA; test: Displacement of TO from human c-Myc G-quadruplex DNA at pH 7.4 by spectrofluorophotometric FID assay; format: nucleic-acid assay
[16] = molecular target: Quadruplex DNA; test: Displacement of TO from human Htg 21 G-quadruplex DNA at pH 7.4 by spectrofluorophotometric FID assay; format: nucleic-acid assay
[17] = molecular target: Quadruplex DNA; test: Displacement of TO from human Hum 24 G-quadruplex DNA at pH 7.4 by spectrofluorophotometric FID assay; format: nucleic-acid assay
[18] = molecular target: Quadruplex DNA; test: Displacement of TO from human Pu 27 G-quadruplex DNA at pH 7.4 by spectrofluorophotometric FID assay; format: nucleic-acid assay
[19] = molecular target: Quadruplex DNA; test: Displacement of TO from human EAD G-quadruplex DNA at pH 7.4 by spectrofluorophotometric FID assay; format: nucleic-acid assay
[20] = molecular target: DNA; test: Displacement of TO from ds26 DNA (unknown origin) at pH 7.4 by spectrofluorophotometric FID assay; format: nucleic-acid assay
[21] = tested on: Calf thymus DNA; test: Displacement of TO from calf thymus DNA at pH 7.4 by spectrofluorophotometric FID assay; format: nucleic-acid assay, Bos taurus
[22] = molecular target: Poly(dG-dC)oligonucleotide; test: Displacement of TO from Polyd(G-C)7 DNA at pH 7.4 by spectrofluorophotometric FID assay; format: nucleic-acid assay
[23] = tested on: Quadruplex DNA; test: Binding affinity to human c-Myc G-quadruplex DNA assessed as inhibition of G4/hemin peroxidase at 1 to 5 uM preincubated for 1 hr followed by hemin addition and further incubated for 1 hr and H2O2 addition and measured after 30 mins by UV spectrophotometric method; format: nucleic-acid assay
[24] = tested on: Quadruplex DNA; test: Binding affinity to human Hum24 G-quadruplex DNA assessed as inhibition of G4/hemin peroxidase at 1 to 5 uM preincubated for 1 hr followed by hemin addition and further incubated for 1 hr and H2O2 addition and measured after 30 mins by UV spectrophotometric method; format: nucleic-acid assay
[25] = tested on: HeLa; test: Antiproliferative activity against human HeLa cells assessed as reduction in cell viability after 72 hrs by CCK8 assay; format: functional
[26] = tested on: HCT-116; test: Antiproliferative activity against human HCT116 cells assessed as reduction in cell viability after 72 hrs by CCK8 assay; format: functional
[27] = tested on: MDA-MB-231; test: Antiproliferative activity against human MDA-MB-231 cells assessed as reduction in cell viability after 72 hrs by CCK8 assay; format: functional
[28] = tested on: Quadruplex DNA; test: Binding affinity to human 22AG G-quadruplex DNA assessed as inhibition of G4/hemin peroxidase at 1 to 5 uM preincubated for 1 hr followed by hemin addition and further incubated for 1 hr and H2O2 addition and measured after 30 mins by UV spectrophotometric method; format: nucleic-acid assay
[29] = tested on: HEK-293T; test: Cytotoxicity against human 293T cells assessed as reduction in cell viability after 72 hrs by CCK8 assay; format: cell-based
[30] = tested on: Quadruplex DNA; test: Binding affinity to G-Quadruplex DNA in human HeLa cells assessed as red fluorescence emission in nucleus at 20 uM after 30 min by DAPI staining based confocal microscopic method; format: cell-based
[31] = tested on: Quadruplex DNA; test: Binding affinity to human c-Myc G-quadruplex DNA assessed as fluorescence intensity at 2 uM by fluorescence spectra analysis; format: nucleic-acid assay
[32] = tested on: Quadruplex DNA; test: Binding affinity to human Htg-21 G-quadruplex DNA assessed as fluorescence intensity at 2 uM by fluorescence spectra analysis; format: nucleic-acid assay
[33] = tested on: Quadruplex DNA; test: Binding affinity to human CM22 G-quadruplex DNA assessed as fluorescence intensity at 2 uM by fluorescence spectra analysis; format: nucleic-acid assay
[34] = tested on: Quadruplex DNA; test: Binding affinity to human 22AG G-quadruplex DNA assessed as fluorescence intensity at 2 uM by fluorescence spectra analysis; format: nucleic-acid assay
[35] = tested on: Quadruplex DNA; test: Binding affinity to human Hum24 G-quadruplex DNA assessed as fluorescence intensity at 2 uM by fluorescence spectra analysis; format: nucleic-acid assay
[36] = tested on: Quadruplex DNA; test: Binding affinity to human G3T3 G-quadruplex DNA assessed as fluorescence intensity at 2 uM by fluorescence spectra analysis; format: nucleic-acid assay
[37] = tested on: Quadruplex DNA; test: Binding affinity to human EAD G-quadruplex DNA assessed as fluorescence intensity at 2 uM by fluorescence spectra analysis; format: nucleic-acid assay
[38] = tested on: Quadruplex DNA; test: Binding affinity to human Pu27 G-quadruplex DNA assessed as fluorescence intensity at 2 uM by fluorescence spectra analysis; format: nucleic-acid assay
[39] = tested on: ssDNA; test: Binding affinity to SS26 DNA (unknown origin) assessed as fluorescence intensity at 2 uM by fluorescence spectra analysis; format: nucleic-acid assay
[40] = tested on: DNA; test: Binding affinity to ds26 DNA (unknown origin) assessed as fluorescence intensity at 2 uM by fluorescence spectra analysis; format: nucleic-acid assay
[41] = tested on: Calf thymus DNA; test: Binding affinity to calf thymus DNA assessed as fluorescence intensity at 2 uM by fluorescence spectra analysis; format: nucleic-acid assay; conditions: Bos taurus
[42] = tested on: Poly(dG-dC)oligonucleotide; test: Binding affinity to poly (G-C)7 DNA assessed as fluorescence intensity at 2 uM by fluorescence spectra analysis; format: nucleic-acid assay

Structure (SMILES): C[n+]1c(/C=C/c2ccc(N3CCN(CCCN4C(=O)c5cccc6cccc(c56)C4=O)CC3)cc2)ccc2c3ccccc3ccc21.[I-]
- Activity [1]: Active
- Ka [2]: 0.27 ×10⁶ /M
- DC50 [3]: 410 nM
- Activity [4]: Active
- Activity [5]: Active
- Activity [6]: Active
- Activity [7]: Active
- Activity [8]: Active
- Activity [9]: Active
- Activity [10]: Active
- Activity [11]: Active
- Ka [12]: 290000 M⁻¹
- DC50 [13]: 480 nM
- DC50 [14]: 390 nM
- DC50 [15]: 320 nM
- DC50 [16]: 690 nM
- DC50 [17]: 500 nM
- DC50 [18]: 320 nM
- DC50 [19]: 350 nM
- DC50 [20]: 980 nM
- DC50 [21]: 850 nM
- DC50 [22]: > 1500 nM
- inhibition [23]: Active
- inhibition [24]: Active
- Activity [25]: 0.2438 µM
- Activity [26]: 0.4764 µM
- Activity [27]: 0.1432 µM
- inhibition [28]: Active
- Activity [29]: 0.5372 µM
- Activity [30]: Active
- fold change (FC) [31]: 1800
- fold change (FC) [32]: 700 to 1800
- fold change (FC) [33]: 700 to 1800
- fold change (FC) [34]: 700 to 1800
- fold change (FC) [35]: 700 to 1800
- fold change (FC) [36]: 700 to 1800
- fold change (FC) [37]: 700 to 1800
- fold change (FC) [38]: 700 to 1800
- fold change (FC) [39]: 50 to 300
- fold change (FC) [40]: 50 to 300
- fold change (FC) [41]: 50 to 300
- fold change (FC) [42]: 50 to 300

Structure (SMILES): C[n+]1ccccc1/C=C/c1ccc(N2CCN(CCCN3C(=O)c4cccc5cccc(c45)C3=O)CC2)cc1.[I-]
- Activity [1]: inactive
- Activity [4]: inactive
- Activity [5]: inactive
- Activity [6]: inactive
- Activity [7]: inactive
- Activity [8]: inactive
- Activity [9]: inactive
- Activity [10]: inactive
- Activity [25]: 0.1913 µM
- Activity [26]: 0.5566 µM
- Activity [27]: 0.1014 µM
- Activity [29]: 1.753 µM
- fold change (FC) [31]: 16
- fold change (FC) [32]: 700 to 1800
- fold change (FC) [33]: 700 to 1800
- fold change (FC) [34]: 700 to 1800
- fold change (FC) [35]: 700 to 1800
- fold change (FC) [36]: 700 to 1800
- fold change (FC) [37]: 700 to 1800
- fold change (FC) [38]: 700 to 1800
- fold change (FC) [39]: 50 to 300
- fold change (FC) [40]: 50 to 300
- fold change (FC) [41]: 50 to 300
- fold change (FC) [42]: 50 to 300

Structure (SMILES): O=c1[nH]cc(F)c(=O)[nH]1 [FLUOROURACIL]
- Activity [25]: 0.8046 µM
- Activity [26]: 1.123 µM
- Activity [27]: 0.8615 µM
- Activity [29]: 0.5879 µM

Source: ChEMBL document CHEMBL4619703, “Synthesis, G-Quadruplex DNA binding and cytotoxic properties of naphthalimide substituted styryl dyes” (Bioorg Med Chem, 2020)
